According to PubChem BioAssay AID1963963 (Molecular Pharmacology Branch, DTP, NCI, 2024):

Tested on: 958667-338-R-J2-PDC tumor spheroids viability
Assay: Anticancer human tumor 958667-338-R-J2-PDC patient-derived colon adenocarcinoma cell line growth inhibition [PI3K]
Conditions: spheroids with HUVEC and MSC; for IC50: curve of first compound; for viability, T/C: stronger effect = lower value; active = viability on the fitted dose curve at most 10% of control; inactive = the rest
Procedure, shortened: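 High-throughput combination screen: PI3K inhibitors crossed with targeted small molecules on complex spheroids of tumor cells, HUVEC and MSCs at 37 degrees C, 5% CO2. Top concentration was at or near clinical Cmax (otherwise 10 microM), with half-log decrements.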

[1] = second compound 0.0316 µM, first compound 0.0316 µM
[2] = second compound 0.0316 µM, first compound 0.1 µM
[3] = second compound 0.0316 µM, first compound 0.316 µM
[4] = second compound 0.0316 µM, first compound 1 µM
[5] = second compound 0.0316 µM, first compound 3.16 µM
[6] = second compound 0.0316 µM, first compound 10 µM
[7] = second compound 0.1 µM, first compound 0.0316 µM
[8] = second compound 0.1 µM, first compound 0.1 µM
[9] = second compound 0.1 µM, first compound 0.316 µM
[10] = second compound 0.1 µM, first compound 1 µM
[11] = second compound 0.1 µM, first compound 3.16 µM
[12] = second compound 0.1 µM, first compound 10 µM
[13] = second compound 0.316 µM, first compound 0.0316 µM
[14] = second compound 0.316 µM, first compound 0.1 µM
[15] = second compound 0.316 µM, first compound 0.316 µM
[16] = second compound 0.316 µM, first compound 1 µM
[17] = second compound 0.316 µM, first compound 3.16 µM
[18] = second compound 0.316 µM, first compound 10 µM
[19] = second compound 1 µM, first compound 0.0316 µM
[20] = second compound 1 µM, first compound 0.1 µM
[21] = second compound 1 µM, first compound 0.316 µM
[22] = second compound 1 µM, first compound 1 µM
[23] = second compound 1 µM, first compound 3.16 µM
[24] = second compound 1 µM, first compound 10 µM
[25] = second compound 3.16 µM, first compound 0.0316 µM
[26] = second compound 3.16 µM, first compound 0.1 µM
[27] = second compound 3.16 µM, first compound 0.316 µM
[28] = second compound 3.16 µM, first compound 1 µM
[29] = second compound 3.16 µM, first compound 3.16 µM
[30] = second compound 3.16 µM, first compound 10 µM
[31] = second compound 10 µM, first compound 0.0316 µM
[32] = second compound 10 µM, first compound 0.1 µM
[33] = second compound 10 µM, first compound 0.316 µM
[34] = second compound 10 µM, first compound 1 µM
[35] = second compound 10 µM, first compound 3.16 µM
[36] = second compound 10 µM, first compound 10 µM
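Note: spheroids exposed to compounds for seven days before readout.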

CCCS(=O)(=O)Nc1ccc(F)c(C(=O)c2c[nH]c3ncc(-c4ccc(Cl)cc4)cc23)c1F + CC(Nc1ncnc2nc[nH]c12)c1cc2cccc(Cl)c2c(=O)n1-c1ccccc1
6.31 µM: IC50 (second compound 1 µM)
6.66 µM: IC50 (second compound 3.16 µM)
6.36 µM: IC50 (second compound 0.316 µM)
inactive: viability, T/C [1] 121% | viability, T/C [2] 97.5% | viability, T/C [3] 99.8% | viability, T/C [4] 116% | viability, T/C [5] 131% | viability, T/C [6] 34.7% | viability, T/C [7] 95.8% | viability, T/C [8] 91.7% | viability, T/C [9] 101% | viability, T/C [10] 99.9% | viability, T/C [11] 133% | viability, T/C [12] 17.6% | viability, T/C [13] 82.2% | viability, T/C [14] 79.8% | viability, T/C [15] 92.4% | viability, T/C [16] 104% | viability, T/C [17] 134% | viability, T/C [18] 18.5% | viability, T/C [19] 102% | viability, T/C [20] 107% | viability, T/C [21] 121% | viability, T/C [22] 89.5% | viability, T/C [23] 101% | viability, T/C [24] 16.6% | viability, T/C [25] 121% | viability, T/C [26] 119% | viability, T/C [27] 83.4% | viability, T/C [28] 116% | viability, T/C [29] 117% | viability, T/C [30] 16.2% | viability, T/C [31] 79.5% | viability, T/C [32] 99% | viability, T/C [33] 103% | viability, T/C [34] 91.9% | viability, T/C [35] 99.6% | viability, T/C [36] 17.9%
6.5 µM: IC50 (second compound 0.1 µM)
7.99 µM: IC50 (second compound 0.0316 µM)
6.18 µM: IC50 (second compound 10 µM)

C=CC(=O)N1CCN(c2nc(=O)n(-c3c(C)ccnc3C(C)C)c3nc(-c4c(O)cccc4F)c(F)cc23)C(C)C1 (stereo unspecified) + COc1c(OCCCN2CCOCC2)ccc2c3n(c(=NC(=O)c4cnc(N)nc4)nc12)CCN3
inactive: viability, T/C (second compound 0.00316 µM, first compound 0.0316 µM) 97.1% | viability, T/C (second compound 0.00316 µM, first compound 0.1 µM) 97.6% | viability, T/C (second compound 0.00316 µM, first compound 0.316 µM) 88.8% | viability, T/C (second compound 0.00316 µM, first compound 1 µM) 117% | viability, T/C (second compound 0.00316 µM, first compound 3.16 µM) 103% | viability, T/C (second compound 0.00316 µM, first compound 10 µM) 121% | viability, T/C (second compound 0.01 µM, first compound 0.0316 µM) 103% | viability, T/C (second compound 0.01 µM, first compound 0.1 µM) 103% | viability, T/C (second compound 0.01 µM, first compound 0.316 µM) 87% | viability, T/C (second compound 0.01 µM, first compound 1 µM) 92.6% | viability, T/C (second compound 0.01 µM, first compound 3.16 µM) 107% | viability, T/C (second compound 0.01 µM, first compound 10 µM) 94% | viability, T/C [1] 82.1% | viability, T/C [2] 83% | viability, T/C [3] 71.8% | viability, T/C [4] 72.4% | viability, T/C [5] 78.2% | viability, T/C [6] 69.9% | viability, T/C [7] 61% | viability, T/C [8] 72.7% | viability, T/C [9] 52.9% | viability, T/C [10] 62.6% | viability, T/C [11] 72.4% | viability, T/C [12] 64.2% | viability, T/C [13] 36.3% | viability, T/C [14] 36% | viability, T/C [15] 44.4% | viability, T/C [16] 42% | viability, T/C [17] 47.3% | viability, T/C [18] 46.1% | viability, T/C [19] 22.6% | viability, T/C [20] 23.1% | viability, T/C [21] 18.8% | viability, T/C [22] 21.2% | viability, T/C [23] 25.3% | viability, T/C [24] 18.2%
< 0.0316 µM: IC50 (second compound 0.316 µM) | IC50 (second compound 1 µM)
> 10 µM: IC50 (second compound 0.00316 µM) | IC50 (second compound 0.01 µM) | IC50 (second compound 0.0316 µM) | IC50 (second compound 0.1 µM)

C[C@@H](NC(=O)c1ncnc(N)c1Cl)c1ncc(C(=O)Nc2cc(C(F)(F)F)c(Cl)cn2)s1 + Cc1nc(NC(=O)N2CCCC2C(N)=O)sc1-c1ccnc(C(C)(C)C(F)(F)F)c1
3.29 µM: IC50 (second compound 10 µM)
inactive: viability, T/C [1] 97.2% | viability, T/C [2] 121% | viability, T/C [3] 115% | viability, T/C [4] 88.6% | viability, T/C [5] 87.8% | viability, T/C [6] 89.2% | viability, T/C [7] 119% | viability, T/C [8] 126% | viability, T/C [9] 113% | viability, T/C [10] 108% | viability, T/C [11] 107% | viability, T/C [12] 94.9% | viability, T/C [13] 101% | viability, T/C [14] 85% | viability, T/C [15] 106% | viability, T/C [16] 111% | viability, T/C [17] 94.7% | viability, T/C [18] 90.2% | viability, T/C [19] 87% | viability, T/C [20] 95.8% | viability, T/C [21] 116% | viability, T/C [22] 94.9% | viability, T/C [23] 81.6% | viability, T/C [24] 75.7% | viability, T/C [25] 77.9% | viability, T/C [26] 86.9% | viability, T/C [27] 82.8% | viability, T/C [28] 90.4% | viability, T/C [29] 89.8% | viability, T/C [30] 57.9% | viability, T/C [31] 79.4% | viability, T/C [32] 82.5% | viability, T/C [33] 76.6% | viability, T/C [34] 71.3% | viability, T/C [35] 50.7% | viability, T/C [36] 28.2%
> 10 µM: IC50 (second compound 0.0316 µM) | IC50 (second compound 0.1 µM) | IC50 (second compound 0.316 µM) | IC50 (second compound 1 µM) | IC50 (second compound 3.16 µM)
